From ChEMBL document CHEMBL4028830, “Novel pyrazoles and pyrazolo[1,2-a]pyridazines as selective COX-2 inhibitors; Ultrasound-assisted synthesis, biological evaluation, and DFT calculations” (Bioorg Med Chem Lett, 2017)

How the values were obtained:
Homo sapiens = species on record: Homo sapiens; test: Selectivity index, ratio of IC50 for COX1 (unknown origin) to IC50 for COX2 (unknown origin)
Rattus norvegicus [1] = test: Analgesic activity in albino rat model of thermal-induced nociception assessed as tail withdrawal latency time at 100 mg/kg, po measured at 240 mins post dose by tail immersion test (reference value: 2.62 +/- 0.13 min); type: functional
[2] = target: T1, Prostaglandin G/H synthase 2 (Homo sapiens, UniProt P35354); test: Inhibition of COX2 (unknown origin) using arachidonic acid as substrate pretreated for 10 mins followed by substrate addition measured after 2 mins by enzyme-immunoassay
T1 sequence (P35354 whole entry): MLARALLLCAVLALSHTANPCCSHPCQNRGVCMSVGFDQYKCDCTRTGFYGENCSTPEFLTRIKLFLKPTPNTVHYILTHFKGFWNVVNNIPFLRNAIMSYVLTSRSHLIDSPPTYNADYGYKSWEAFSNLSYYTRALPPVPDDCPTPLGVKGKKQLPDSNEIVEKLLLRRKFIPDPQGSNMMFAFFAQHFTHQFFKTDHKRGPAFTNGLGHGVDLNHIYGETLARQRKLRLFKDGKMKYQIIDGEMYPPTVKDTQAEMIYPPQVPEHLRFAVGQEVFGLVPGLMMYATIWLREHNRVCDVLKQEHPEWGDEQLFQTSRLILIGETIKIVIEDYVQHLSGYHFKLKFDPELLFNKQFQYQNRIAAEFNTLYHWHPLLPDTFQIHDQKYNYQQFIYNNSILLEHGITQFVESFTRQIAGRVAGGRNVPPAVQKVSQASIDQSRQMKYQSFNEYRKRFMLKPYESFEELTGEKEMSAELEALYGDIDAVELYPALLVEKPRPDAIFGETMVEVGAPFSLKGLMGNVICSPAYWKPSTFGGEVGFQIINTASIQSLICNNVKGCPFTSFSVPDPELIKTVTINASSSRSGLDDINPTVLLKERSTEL

Rattus norvegicus [3] = test: Analgesic activity in albino rat model of thermal-induced nociception assessed as tail withdrawal latency time at 100 mg/kg, po measured at 120 mins post dose by tail immersion test (reference value: 2.63 +/- 0.15 min); type: functional
Rattus norvegicus [4] = test: Analgesic activity in albino rat model of thermal-induced nociception assessed as tail withdrawal latency time at 100 mg/kg, po measured immediately by tail immersion test (reference value: 2.60 +/- 0.14 min); type: functional
Rattus norvegicus [5] = test: Analgesic activity in albino rat model of thermal-induced nociception assessed as tail withdrawal latency time at 100 mg/kg, po measured at 60 mins post dose by tail immersion test (reference value: 2.62 +/- 0.11 min); type: functional
Rattus norvegicus [6] = test: Analgesic activity in albino rat model of thermal-induced nociception assessed as tail withdrawal latency time at 100 mg/kg, po measured at 180 mins post dose by tail immersion test (reference value: 2.62 +/- 0.13 min); type: functional
Rattus norvegicus [7] = test: Anti-inflammatory activity against carrageenan-induced paw oedema in albino rat assessed as paw thickness at 100 mg/kg measured at 6 hrs post dose (reference value: 0.92 +/- 0.03 cm); type: functional
Rattus norvegicus [8] = test: Anti-inflammatory activity against carrageenan-induced paw oedema in albino rat assessed as paw thickness at 100 mg/kg measured at 3 hrs post dose (reference value: 0.93 +/- 0.02 cm); type: functional
Rattus norvegicus [9] = test: Analgesic activity in albino rat model of thermal-induced nociception assessed as tail withdrawal latency time at 100 mg/kg, po measured at 300 mins post dose by tail immersion test (reference value: 2.58 +/- 0.11 min); type: functional
[10] = target: Prostaglandin G/H synthase 1 (Homo sapiens, UniProt P23219); test: Inhibition of COX1 (unknown origin) using arachidonic acid as substrate pretreated for 10 mins followed by substrate addition measured after 2 mins by enzyme-immunoassay
Rattus norvegicus [11] = test: Anti-inflammatory activity against carrageenan-induced paw oedema in rat assessed as paw thickness at 100 mg/kg measured immediately (reference value: 0.98 +/- 0.03 cm); type: functional

Sequence of Prostaglandin G/H synthase 1 (P23219 whole entry): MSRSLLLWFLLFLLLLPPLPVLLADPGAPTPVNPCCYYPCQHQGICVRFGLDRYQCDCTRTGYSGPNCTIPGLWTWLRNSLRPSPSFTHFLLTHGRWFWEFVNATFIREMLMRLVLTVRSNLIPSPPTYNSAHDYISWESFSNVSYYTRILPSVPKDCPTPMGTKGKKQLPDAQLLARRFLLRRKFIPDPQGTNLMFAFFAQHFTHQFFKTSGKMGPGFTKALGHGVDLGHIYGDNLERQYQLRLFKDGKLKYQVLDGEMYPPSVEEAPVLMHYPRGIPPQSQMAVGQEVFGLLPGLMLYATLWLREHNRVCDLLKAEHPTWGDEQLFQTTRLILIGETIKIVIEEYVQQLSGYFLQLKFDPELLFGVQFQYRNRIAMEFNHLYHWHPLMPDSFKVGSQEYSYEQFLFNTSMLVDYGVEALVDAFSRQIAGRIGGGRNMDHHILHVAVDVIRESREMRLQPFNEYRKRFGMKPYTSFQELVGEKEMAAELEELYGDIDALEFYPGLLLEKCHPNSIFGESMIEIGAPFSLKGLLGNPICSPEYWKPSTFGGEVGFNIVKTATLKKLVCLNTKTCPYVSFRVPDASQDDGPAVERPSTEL

SMILES | Selectivity Index (Homo sapiens) | Time (Rattus norvegicus [1]) | IC50 ([2]; read-out: IC50) | Time (Rattus norvegicus [3]) | Time (Rattus norvegicus [4]) | Time (Rattus norvegicus [5]) | Time (Rattus norvegicus [6]) | Activity (Rattus norvegicus [7]) | Activity (Rattus norvegicus [8]) | Time (Rattus norvegicus [9]) | IC50 ([10]; read-out: IC50) | Activity (Rattus norvegicus [11]) | IC50 [2] | IC50 [10]
CCOC(=O)C1=C(N)n2c(=O)ccc(=O)n2C1c1ccccc1O (stereo not given) | 0.83 | 4.52 min | 90.1 nM | 4.47 min | 2.72 min | 4.33 min | 4.58 min | 0.7 cm | 0.82 cm | 4.43 min | 74.4 nM | 1.03 cm | – | –
O=C([O-])Cc1ccccc1Nc1c(Cl)cccc1Cl.[Na+] [DICLOFENAC SODIUM] | – | 4.21 min | – | 4.98 min | 2.63 min | 6.44 min | 4.87 min | 0.63 cm | 0.77 cm | 3.99 min | – | 1.02 cm | – | –
O=C(NN1C(=O)c2ccccc2C1=O)c1ccccc1O | 0.71 | 6.23 min | 130 nM | 5.58 min | 2.55 min | 5.58 min | 6.25 min | 0.72 cm | 0.73 cm | 7.2 min | 92.2 nM | 0.98 cm | – | –
O=C(NN1C(=O)CCC1=O)c1ccccc1O | – | 5.28 min | – | 4.98 min | 2.42 min | 5.02 min | 4.85 min | 0.62 cm | 0.73 cm | 5.78 min | – | 1 cm | Not Active | Not Active
O=C(/C=C/c1ccccc1O)Nc1ccccc1 | – | 3.92 min | – | 4.12 min | 2.63 min | 3.78 min | 4.18 min | 0.65 cm | 0.83 cm | 3.97 min | – | 1.02 cm | – | –
O=C(c1ccccc1O)n1nc(Nc2ccccc2)cc1-c1ccccc1O | 4.35 | 4.07 min | 16.2 nM | 4.05 min | 2.47 min | 3.95 min | 4.18 min | 0.55 cm | 0.63 cm | 4.22 min | 70.4 nM | 0.97 cm | – | –
CCOC(=O)C1=C(N)n2c(=O)c3ncccc3c(=O)n2C1c1ccccc1O (stereo not given) | 3.32 | 5.25 min | 20.1 nM | 5.53 min | 2.55 min | 5.83 min | 5.75 min | 0.62 cm | 0.68 cm | 4.08 min | 66.7 nM | 0.98 cm | – | –
O=C(NN1C(=O)c2cccnc2C1=O)c1ccccc1O | – | 4.27 min | – | 3.97 min | 2.57 min | 3.78 min | 4.3 min | 0.72 cm | 0.83 cm | 4.17 min | – | 0.97 cm | Not Active | Not Active
O=C(NN1C(=O)C=CC1=O)c1ccccc1O | – | 5.23 min | – | 5.52 min | 2.58 min | 5.98 min | 5.47 min | 0.77 cm | 0.83 cm | 5.13 min | – | 1 cm | Not Active | Not Active
CCOC(=O)C1=C(N)N2C(=O)CCC(=O)N2C1c1ccccc1O (stereo not given) | 0.47 | 6.33 min | 181 nM | 6.68 min | 2.63 min | 5.53 min | 6.85 min | 0.65 cm | 0.7 cm | 5.62 min | 88.1 nM | 1.02 cm | – | –
Cc1cc(C)n(C(=O)c2ccccc2O)n1 | – | 5.66 min | – | 5.79 min | 2.62 min | 6.05 min | 4.83 min | 0.67 cm | 0.75 cm | 4.8 min | – | 0.98 cm | Not Active | Not Active
CCOC(=O)C1=C(N)n2c(=O)c3ccccc3c(=O)n2C1c1ccccc1O (stereo not given) | – | 6.33 min | – | 6.68 min | 2.52 min | 5.53 min | 6.85 min | 0.67 cm | 0.72 cm | 5.62 min | – | 0.97 cm | Not Active | Not Active
CC1=NN(C(=O)c2ccccc2O)C(=O)C1 | 0.54 | 4.67 min | 151 nM | 4.78 min | 2.48 min | 5.52 min | 4.7 min | 0.67 cm | 0.77 cm | 4.4 min | 82.1 nM | 1.02 cm | – | –
